Measurements reported in ChEMBL document CHEMBL1154653, “Discovery and pharmacological characterization of aryl piperazine and piperidine ethers as dual acting norepinephrine reuptake inhibitors and 5-HT1A partial agonists” (Bioorg Med Chem Lett, 2009).

Tests used:
[1] = biological target: T1, 5-hydroxytryptamine receptor 1A (Homo sapiens, UniProt P08908); assay: biochemical
T1 sequence (P08908 whole entry): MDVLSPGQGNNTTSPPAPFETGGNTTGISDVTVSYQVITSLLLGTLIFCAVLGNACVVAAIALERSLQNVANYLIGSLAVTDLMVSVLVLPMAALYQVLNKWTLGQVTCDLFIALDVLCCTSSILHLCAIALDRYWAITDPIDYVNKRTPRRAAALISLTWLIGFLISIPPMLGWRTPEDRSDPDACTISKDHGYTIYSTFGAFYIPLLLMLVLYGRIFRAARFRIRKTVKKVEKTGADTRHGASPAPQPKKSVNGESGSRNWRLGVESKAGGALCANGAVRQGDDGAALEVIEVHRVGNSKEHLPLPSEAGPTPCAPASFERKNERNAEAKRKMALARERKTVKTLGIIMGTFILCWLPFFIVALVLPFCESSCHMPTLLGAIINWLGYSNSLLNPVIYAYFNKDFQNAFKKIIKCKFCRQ
Description: Displacement of [3H]8-OH-DPAT from human 5HT1A receptor expressed in CHO cells

[2] = biological target: T2, Sodium-dependent serotonin transporter (Homo sapiens, UniProt P31645); assay: biochemical
T2 sequence (P31645 whole entry): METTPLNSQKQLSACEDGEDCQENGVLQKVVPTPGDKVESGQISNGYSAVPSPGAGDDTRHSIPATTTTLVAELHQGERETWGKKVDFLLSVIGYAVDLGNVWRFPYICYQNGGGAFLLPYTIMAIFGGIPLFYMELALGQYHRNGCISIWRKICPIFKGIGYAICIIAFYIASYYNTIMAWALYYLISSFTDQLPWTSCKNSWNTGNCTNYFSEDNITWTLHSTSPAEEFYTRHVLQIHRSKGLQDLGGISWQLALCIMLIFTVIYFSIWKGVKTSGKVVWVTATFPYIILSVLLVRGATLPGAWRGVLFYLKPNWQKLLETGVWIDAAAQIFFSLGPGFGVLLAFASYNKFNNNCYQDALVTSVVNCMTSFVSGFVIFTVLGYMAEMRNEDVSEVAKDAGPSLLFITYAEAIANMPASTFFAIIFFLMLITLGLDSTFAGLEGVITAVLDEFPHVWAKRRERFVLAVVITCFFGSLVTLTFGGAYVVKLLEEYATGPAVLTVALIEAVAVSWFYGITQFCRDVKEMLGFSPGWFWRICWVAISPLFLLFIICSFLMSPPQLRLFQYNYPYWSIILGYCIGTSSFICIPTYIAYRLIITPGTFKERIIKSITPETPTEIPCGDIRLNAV
Description: Displacement of [125I]RTI-55 from human SERT expressed in HEK293 cells

[3] = biological target: T3, Sodium-dependent dopamine transporter (Homo sapiens, UniProt Q01959); format: cell-based, HEK293
T3 sequence (Q01959 whole entry): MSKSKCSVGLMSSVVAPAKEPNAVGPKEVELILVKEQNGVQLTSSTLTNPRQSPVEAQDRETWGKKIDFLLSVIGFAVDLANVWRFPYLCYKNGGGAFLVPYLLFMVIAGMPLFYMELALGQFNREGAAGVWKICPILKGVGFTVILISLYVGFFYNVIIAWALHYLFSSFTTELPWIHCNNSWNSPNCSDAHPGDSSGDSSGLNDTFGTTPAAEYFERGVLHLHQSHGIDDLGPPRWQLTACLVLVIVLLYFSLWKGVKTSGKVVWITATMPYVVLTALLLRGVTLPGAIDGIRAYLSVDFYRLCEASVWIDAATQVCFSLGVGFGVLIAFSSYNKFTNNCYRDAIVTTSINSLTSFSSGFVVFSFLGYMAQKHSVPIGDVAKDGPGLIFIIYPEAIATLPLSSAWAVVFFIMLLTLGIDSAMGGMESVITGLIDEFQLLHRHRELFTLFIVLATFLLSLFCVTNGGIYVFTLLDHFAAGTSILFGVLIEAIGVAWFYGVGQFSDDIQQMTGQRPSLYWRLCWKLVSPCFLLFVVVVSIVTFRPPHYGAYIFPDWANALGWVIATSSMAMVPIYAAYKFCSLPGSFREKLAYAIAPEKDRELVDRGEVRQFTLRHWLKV

[4] = biological target: T1, 5-hydroxytryptamine receptor 1A; assay: Partial agonist activity at human 5HT1A expressed in HEK293 cells by FLIPR assay; format: functional, cell-based
[5] = biological target: T4, 5-hydroxytryptamine receptor 1A (Homo sapiens) (UniProt P08908); assay: Partial agonist activity at human 5HT1A expressed in HEK293 cells by FLIPR assay relative to 5HT; format: functional, cell-based
T4 sequence (whole entry): T1 sequence (P08908 whole entry)

[6] = biological target: T5, Sodium-dependent noradrenaline transporter (Homo sapiens, UniProt P23975); assay: biochemical
T5 sequence (P23975 whole entry): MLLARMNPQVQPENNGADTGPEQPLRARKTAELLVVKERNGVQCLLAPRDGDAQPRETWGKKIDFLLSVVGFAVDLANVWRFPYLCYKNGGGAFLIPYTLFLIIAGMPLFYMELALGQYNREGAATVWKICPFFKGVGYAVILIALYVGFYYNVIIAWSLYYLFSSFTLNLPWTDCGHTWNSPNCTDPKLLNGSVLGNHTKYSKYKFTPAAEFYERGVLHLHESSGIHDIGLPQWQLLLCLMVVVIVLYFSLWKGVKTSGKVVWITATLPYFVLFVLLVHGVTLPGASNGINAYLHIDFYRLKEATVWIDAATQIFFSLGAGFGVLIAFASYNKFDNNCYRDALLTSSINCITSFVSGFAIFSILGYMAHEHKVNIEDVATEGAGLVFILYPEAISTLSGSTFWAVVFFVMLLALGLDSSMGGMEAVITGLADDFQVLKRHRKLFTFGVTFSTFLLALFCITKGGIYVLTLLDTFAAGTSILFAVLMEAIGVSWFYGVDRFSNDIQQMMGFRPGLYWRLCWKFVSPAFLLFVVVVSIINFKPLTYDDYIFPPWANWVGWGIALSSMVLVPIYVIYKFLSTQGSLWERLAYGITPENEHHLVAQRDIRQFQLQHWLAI
Description: Displacement of [125I]RTI-55 from human NET expressed in HEK293 cells

Rattus norvegicus [7] = assay: Ex vivo receptor occupancy at 5HT1A receptor in Sprague-Dawley rat brain at 10 mg/kg, sc by [3H]-OH-DAPT binding; format: functional; conditions: route subcutaneous
Rattus norvegicus [8] = assay: Ex vivo receptor occupancy at NET receptor in Sprague-Dawley rat brain at 10 mg/kg, sc by [3H]nisoxetine binding; format: functional; conditions: route subcutaneous
[9] = Apparent intrinsic clearance in human liver microsomes; format: ADME, Microsome
[10] = biological target: T5, Sodium-dependent noradrenaline transporter; assay: Inhibition of norepinephrine uptake at human NET expressed in HEK293 cells; format: cell-based
[11] = biological target: T2, Sodium-dependent serotonin transporter; assay: Inhibition of [3H]5-HT uptake at human 5HTT expressed in HEK293 cells; format: cell-based
[12] = biological target: T3, Sodium-dependent dopamine transporter; assay: Inhibition of dopamine uptake at human DAT expressed in HEK293 cells; format: cell-based

SMILES | Ki [1] [nM] | Ki [2] [nM] | Ki [3] [nM] | Ki [6] [nM] | further results
c1ccc(OCc2ccccc2N2CCNCC2)cc1 | 189 | 780 | 701 |  | 
Clc1cccc(Oc2ccccc2C2CCNCC2)c1 | 5 |  |  |  | EC50 [4]: 1150 nM; Emax [5]: 44%
Cc1ccc(C2CCNCC2)c(Oc2ccc(F)cc2)c1 | > 4570 | 427 | 1680 | 115 | 
c1ccc(COc2ccccc2N2CCNCC2)cc1 | 28 |  |  |  | EC50 [4]: > 10000 nM
c1ccc(OCc2ccccc2C2CCNCC2)cc1 | > 1000 | 364 | 396 | 1710 | 
Fc1ccccc1COc1ccccc1C1CCNCC1 | 47 |  |  |  | 
O=C1C(Cc2ccccc2N2CCNCC2)SCCN1c1ccc(Cl)c(Cl)c1 (centres undefined) | 9 | 81 | 87 | 5 | 
Fc1ccccc1COc1ccccc1N1CCNCC1 | 31 | 978 | > 10000 | 526 | 
Fc1cccc(OCc2ccccc2N2CCNCC2)c1F | 101 |  |  |  | 
Fc1cccc(Oc2ccccc2N2CCNCC2)c1 | 9 |  |  |  | 
c1ccc(Oc2ccccc2N2CCNCC2)cc1 | 128 |  | 4730 | 554 | 
Fc1ccc(Oc2ccccc2N2CCNCC2)cc1 | 8 |  |  |  | 
Cc1ccc(F)c(Oc2ccccc2C2CCNCC2)c1 | 57 | 26 | 1080 | 3 | 
Fc1ccc(COc2ccc(Cl)cc2C2CCNCC2)cc1 | > 1000 | 40 | 5530 | 6 | 
Fc1cccc(Oc2ccccc2C2CCNCC2)c1 |  |  |  |  | Emax [5]: 51%
c1ccc(N2CCNCC2)c(COc2ccccc2C2CC2)c1 | 466 |  |  |  | 
Fc1cccc(OCc2ccccc2N2CCNCC2)c1 | 116 | 17 | > 2000 | 104 | 

Continued, in another order:

Ki [1] [nM] | Ki [2] [nM] | Ki [3] [nM] | Ki [6] [nM] | SMILES | further results
> 4570 |  |  |  | Cc1ccc(C2CCNCC2)c(Oc2cccc(F)c2)c1 | 
1160 | 2 | 452 | 20 | Fc1ccc(OCc2ccc(Cl)c(Cl)c2)c(C2CCNCC2)c1 | 
2210 |  |  |  | Fc1ccc(COc2ccc(F)cc2C2CCNCC2)cc1 | 
117 |  |  |  | Fc1ccc(Oc2ccccc2C2CCNCC2)cc1 | 
606 | 2970 | 7370 | 9 | Fc1cccc(C2CCNCC2)c1OCc1ccccc1 | 
128 | 706 | 45 | 170 | Fc1cccc(Oc2ccccc2)c1C1CCNCC1 | 
63 | 1760 | 284 | 416 | c1ccc(Oc2ccccc2C2CCNCC2)cc1 | 
77 |  |  |  | Fc1ccc(COc2ccccc2C2CCNCC2)cc1 | 
21 |  |  |  | Fc1cccc(Oc2cccc(F)c2C2CCNCC2)c1 | Activity (Rattus norvegicus [7]): 77%; EC50 [4]: 137 nM; Activity (Rattus norvegicus [8]): 80%; Emax [5]: 74%
> 4570 |  |  |  | Fc1ccc(Oc2cc(F)c(F)cc2C2CCNCC2)cc1 | 
20 | 2330 | 239 | 1370 | Fc1cccc(C2CCNCC2)c1Oc1ccccc1 | microsomal CLint [9]: 15 µL/min/mg; EC50 [10]: 358 nM; EC50 [4]: 877 nM; EC50 [11]: 1760 nM; Emax [5]: 35%; EC50 [12]: 982 nM
121 | 74 | 1000 | 76 | c1ccc(COc2ccccc2C2CCNCC2)cc1 | 
> 1000 | 49 | 461 | 1940 | Fc1cccc(OCc2ccccc2C2CCNCC2)c1 | 
4 | 98 | 1360 | 650 | O=C1/C(=C/c2ccccc2N2CCNCC2)SCCN1c1ccc(F)cc1F | 
364 |  |  |  | Fc1cccc(OCc2ccccc2)c1C1CCNCC1 | 
